In patent US20220211860A1, “PEPTIDE DERIVATIVES AND CONJUGATES THEREOF FOR TREATING CANCER” (priority 2019, published 2022):
Read-outs that look alike come from different tables or passages of the source. Non-standard residues stand in square brackets, D forms with d. Residues, ends and D or L forms follow the SMILES beside them. *: point of attachment. Dolaproine = CO[C@@H]([C@@H]1CCCN1)[C@@H](C)C(=O)O; Dil = CC[C@H](C)[C@H](NC)[C@@H](CC(=O)O)OC; X1 = C[C@@H](N*)[C@@H](O)c1ccccc1; NMeV = CN[C@H](C(=O)O)C(C)C

Legend:
in vitro = settings: human, plasma, half-life (T1/2)
Protocol: As described herein in vitro metabolic stability in plasma is defined as the susceptibility of a chemical compound to biotransformation in plasma, and is expressed as in vitro half-life (T1/2).
(B) The metabolic stability of LHRH peptide derivatives examined in human plasma and quantified by Liquid Chromatography-Mass-Spectrometry (LC-MS) in a time dependent manner. […] Statistical analysis was performed using a one-way ANOVA followed by Dunnett's post-hoc test. Error bars are standard deviations (STDV), p<0.05, n=9 (3 independent experiments each performed in triplicate).

MDA-MB-231 = settings: read-out: IC50 inhibition of cell growth
Protocol: (§2) The IC50 values (μM) were estimated from concentration-response curves using non-linear regression for inhibition of cell growth. Data are expressed as mean±SD from at least three independent experiments, each in triplicate. Statistical analysis was performed using a two-way ANOVA (* p<0.05, the IC50 for each compared with that of their corresponding parent peptide for the same cell line).

MCF-7 = settings: read-out: IC50 inhibition of cell growth
Protocol: as §2

SKOV-3 [1] = settings: read-out: IC50 inhibition of cell growth
Protocol: as §2

SK-BR-3 = settings: read-out: IC50 inhibition of cell growth
Protocol: as §2

SKOV-3 [2] = experiment: MTT cytotoxicity assay, SKOV-3 (low LHRH-R expressing); type: cell-based; settings: SKOV-3, 72 h
Protocol: (§1) FIG. 4A to 4E: The cytotoxic activity of the peptide conjugate LD5-mc-vc-PABC-MMAE (LM) in comparison to MMAE was assessed in MDA-MB-231 (TNBC cell model) versus HMEC and MCF-10A (normal breast cells) and SKOV-3 (low LHRH-R expressing cell model), by MTT assay after incubating cells with compounds in serial dilution for 72 h. (A) The relative cellular viability was assessed in comparison to PBS-treated negative control group and IC50 value (nM) was calculated by non-linear regression (curve fit) for HMEC and MCF-10A (normal breast cells) and MDA-MB-231 (LHRH-R positive, TNBC cell model) and SKOV-3 (LHRH-R low expressing cells). (B) The cell viability in LD5-me-vc-PABC-MMAE (LM) was assessed in HMEC as normal breast cell line in comparison to MMAE by two-way ANOVA followed by Sidak's multiple comparisons test (****p<0.0001). (C) The cell viability in LD5-mc-vc-PABC-MMAE (LM) was assessed in MCF-10A as normal breast cell line in comparison to MMAE by two-way ANOVA followed by Sidak's multiple comparisons test (***p<0.001, **p<0.01, *p<0.05). (D) The cell viability in LD5-me-vc-PABC-MMAE (LM) was assessed in MDA-MB-231 (TNBC cell model) in comparison to MMAE by two-way ANOVA followed by Sidak's multiple comparisons test (****p<0.0001). […]

α-tubulin polymerisation = experiment: α-tubulin immunostaining in TNBC and normal breast cells; type: cell-based; settings: TNBC cells and normal breast cells, 1 µM, 18 h
Protocol: FIGS. 8A and 8B: The effect of MMAE and LD5-me-vc-PABC-MMAE (LM) on α-tubulin polymerization. (A) MDA-MB-231 (TNBC cell model) and normal breast cells (HMEC and MCF-10A) were treated with free MMAE and LM at 1 μM and PBS (control) followed by immunostaining of α-tubulin with primary and secondary antibodies. The α-tubulin signals were detected by LEICA SPE2 confocal LSM. (B) The α-tubulin signal intensity was measured by Fiji J software in normal breast cells (HMEC and MCF-10A) and MDA-MB-231. ****p<0.0001 is the significance in the signal intensity in each cell line treated with PBS and LM in comparison to MMAE-treated cells. ####p<0.0001 is the significance of the α-tubulin signal intensity in MDA-MB-231 cells treated with LM in comparison to MCF-10A and HMEC cells. […] Statistical analysis was made in Prism by two-way ANOVA followed by Tukey's multiple comparisons test. Error bars are standard deviations (STDV), n=8 (3 independent repeats).
The intracellular effects of MMAE on α-tubulin polymerisation were examined using α-tubulin immunostaining in TNBC cells (MDA-MB-231) and normal breast cells (MCF-10A and HMEC) treated with MMAE and MMAE conjugated with LD5 (LD5-mc-vc-PABC-MMAE). TNBC cells and normal breast cells were fixed after incubating with […] of MMAE and LD5-mc-vc-PABC-MMAE for 18 h along with PBS as a control. […]

MCF-10A = experiment: MTT cytotoxicity assay, MCF-10A normal breast cells; type: cell-based; settings: 72 h
Protocol: as §1

HMEC = experiment: MTT cytotoxicity assay, HMEC normal breast cells; type: cell-based; settings: 72 h
Protocol: as §1

mice [3] = settings: cited from earlier work
mice [4] = experiment: MTD of brentuximab vedotin in mice (comparison); type: in vivo
Description: Therefore, the MTD was not reached at this dose. With the corresponding ADCs bearing MMAE the MTD has been considerably lower.

CCNC(=O)[C@@H]1CCCN1C(=O)[C@H](CCCNC(=N)N)NC(=O)[C@H](CC(C)C)NC(=O)[C@@H](CCCCNC(=O)CCCCCN)NC(=O)[C@H](Cc1ccc(O)cc1)NC(=O)[C@H](CO)NC(=O)[C@H](Cc1c[nH]c2ccccc12)NC(=O)[C@H](Cc1c[nH]cn1)NC(=O)[C@@H]1CCC(=O)N1 [LD6, pGlu-His-Trp-Ser-Tyr-D-Lys(Ahx)-Leu-Arg-Pro-NHCH2CH3]
half-life (in vitro): ~5.15 h | IC50 (MDA-MB-231): 33.2 ± 2.5 µM | IC50 (MCF-7): 49.2 ± 2.1 µM | IC50 (SKOV-3 [1]): > 100 µM | IC50 (SK-BR-3): 29.7 ± 1.1 µM

CCNC(=O)[C@@H]1CCCN1C(=O)[C@H](CCCNC(=N)N)NC(=O)[C@H](CC(C)C)NC(=O)[C@@H](CCCCN)NC(=O)[C@H](Cc1ccc(O)cc1)NC(=O)[C@H](CO)NC(=O)[C@H](Cc1c[nH]c2ccccc12)NC(=O)[C@H](Cc1c[nH]cn1)NC(=O)[C@@H](N)CCC(N)=O [LD4, Gln-His-Trp-Ser-Tyr-D-Lys-Leu-Arg-Pro-NHCH2CH3] (H-QHWSY[dK]LRP-NHEt)
half-life (in vitro): ~4.28 h | IC50 (MDA-MB-231): 36.2 ± 0.8 µM | IC50 (MCF-7): 51.3 ± 3.1 µM | IC50 (SKOV-3 [1]): > 100 µM | IC50 (SK-BR-3): 31.2 ± 4.8 µM

CC[C@H](C)[C@@H]([C@@H](CC(=O)N1CCC[C@H]1[C@H](OC)[C@@H](C)C(=O)N[C@H](C)[C@@H](O)c1ccccc1)OC)N(C)C(=O)[C@@H](NC(=O)[C@@H](NC)C(C)C)C(C)C [MMAE, monomethyl auristatin E] (H-[NMeV]V[Dil][Dolaproine]-X1)
IC50 (SKOV-3 [2]): 0.03 nM | α-tubulin formation compared to PBS control (α-tubulin polymerisation): dramatic decrease in α-tubulin formation | IC50 (MCF-10A): 0.00083 µM | IC50 (HMEC): 0.00011 µM

CCNC(=O)[C@@H]1CCCN1C(=O)[C@H](CCCNC(=N)N)NC(=O)[C@H](CC(C)C)NC(=O)[C@@H](CCCCN)NC(=O)[C@H](Cc1ccc(O)cc1)NC(=O)[C@H](CO)NC(=O)[C@H](Cc1c[nH]c2ccccc12)NC(=O)[C@H](Cc1c[nH]cn1)NC(=O)[C@@H]1CCC(=O)N1 [LD5, pGlu-His-Trp-Ser-Tyr-D-Lys-Leu-Arg-Pro-NHCH2CH3]
half-life (in vitro): ~6.08 h | IC50 (MDA-MB-231): 38.1 ± 1.4 µM | IC50 (MCF-7): 47.6 ± 5.4 µM | IC50 (SKOV-3 [1]): > 100 µM | IC50 (SK-BR-3): 33.5 ± 2.5 µM

CC(C)C[C@H](NC(=O)CNC(=O)[C@H](Cc1ccc(O)cc1)NC(=O)[C@H](CO)NC(=O)[C@H](Cc1c[nH]c2ccccc12)NC(=O)[C@H](Cc1c[nH]cn1)NC(=O)[C@@H]1CCC(=O)N1)C(=O)N[C@@H](CCCNC(=N)N)C(=O)N1CCC[C@H]1C(=O)NCC(N)=O [LHRH, pGlu-His-Trp-Ser-Tyr-Gly-Leu-Arg-Pro-Gly-NH2, reference compound]
half-life (in vitro): ~0.167 h | IC50 (MDA-MB-231): > 100 µM | IC50 (MCF-7): > 100 µM | IC50 (SKOV-3 [1]): > 100 µM | IC50 (SK-BR-3): > 100 µM

CC(C)C[C@H](NC(=O)[C@@H](Cc1c[nH]c2ccccc12)NC(=O)[C@H](Cc1ccc(O)cc1)NC(=O)[C@H](CO)NC(=O)[C@H](Cc1c[nH]c2ccccc12)NC(=O)[C@H](Cc1c[nH]cn1)NC(=O)[C@@H]1CCC(=O)N1)C(=O)N[C@@H](CCCNC(=N)N)C(=O)N1CCC[C@H]1C(=O)NCC(N)=O [triptorelin, reference compound]
half-life (in vitro): ~0.317 h | IC50 (MDA-MB-231): 68.1 ± 8.1 µM | IC50 (MCF-7): 79.4 ± 5.3 µM | IC50 (SKOV-3 [1]): > 100 µM | IC50 (SK-BR-3): 81.2 ± 7.2 µM

brentuximab vedotin: ADC in the clinic containing MMAE
MTD (mice [3]): 30 to 40 mg/kg | MTD expressed as equivalent of LHRHD-(mc-vc-PABC)-MMAE (mice [4]): approximately 70 mg/kg

CC(C)C[C@H](NC(=O)[C@@H](CCCCN)NC(=O)[C@H](Cc1ccc(O)cc1)NC(=O)[C@H](CO)NC(=O)[C@H](Cc1c[nH]c2ccccc12)NC(=O)[C@H](Cc1cnc[nH]1)NC(=O)[C@@H]1CCC(=O)N1)C(=O)N[C@@H](CCCNC(=N)N)C(=O)N1CCC[C@H]1C(=O)NCC(N)=O [[k^6] LHRH, reference compound]
half-life (in vitro): ~0.65 h
